The values below come from US20240124432A1, “HERBICIDAL COMPOUNDS” (SYNGENTA CROP PROTECTION AG, priority 2020, published 2024).

Assay type in all cases: in vivo
The test system of assay [1] is AMAPA. The assay is described as follows: Post-emergence biological efficacy. Conditions: Amaranthus palmeri, 312 h, evaluated after 13 days, read-out: damage to plant (100=total damage to plant; 0=no damage to plant). A digest of the protocol:
(§1)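 Pot-grown plants were raised 14 days in a glasshouse (24/19 °C day/night, 16 h light), then sprayed post-emergence with an aqueous dilution of a 50 g/l IF50 formulation stock in 0.2% Genapol XO80. They were kept at 24/18 °C, 15 h light, 50% humidity, and visually scored for damage after 13 days (0 = none, 100 = total).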

The subject of assay [2] is EPHHL. The assay can be described thus: Post-emergence biological efficacy. Conditions: Euphorbia heterophylla, 312 h, evaluated after 13 days, read-out: damage to plant (100=total damage to plant; 0=no damage to plant). A digest of the protocol:
as §1

Assay [3] deals with SETFA. The assay is described as follows: Post-emergence biological efficacy. Conditions: Setaria faberi, 312 h, evaluated after 13 days, read-out: damage to plant (100=total damage to plant; 0=no damage to plant). A digest of the protocol:
as §1

Another assay deals with DIGSA. The assay can be described thus: Post-emergence biological efficacy. Conditions: Digitaria sanguinalis, 312 h, evaluated after 13 days, read-out: damage to plant (100=total damage to plant; 0=no damage to plant). A digest of the protocol:
as §1

In assay [4] the test system is IPOHE. The assay is described as follows: Post-emergence biological efficacy. To be noted: Ipomoea hederacea, 312 h, evaluated after 13 days, read-out: damage to plant (100=total damage to plant; 0=no damage to plant). A digest of the protocol:
as §1

For a further assay, the system named is ELEIN. The assay can be described thus: Post-emergence biological efficacy. Conditions: 312 h, evaluated after 13 days, read-out: damage to plant (100=total damage to plant; 0=no damage to plant). A digest of the protocol: as §1
For assay [5], the system named is LOLPE. The assay is described as follows: Post-emergence biological efficacy. To be noted: Lolium perenne, 312 h, evaluated after 13 days, read-out: damage to plant (100=total damage to plant; 0=no damage to plant). A digest of the protocol: as §1
Assay [6] relates to ECHCG. The assay is described as follows: Post-emergence biological efficacy. Conditions: Echinochloa crus-galli, 312 h, evaluated after 13 days, read-out: damage to plant (100=total damage to plant; 0=no damage to plant). The method in brief:
as §1

The subject of a further assay is CHEAL. The assay is described as follows: Post-emergence biological efficacy. To be noted: Chenopodium album, 312 h, evaluated after 13 days, read-out: damage to plant (100=total damage to plant; 0=no damage to plant). The method in brief:
as §1

For assay [7], the system named is AMAPA. The assay can be described thus: Pre-emergence biological efficacy. To be noted: Amaranthus palmeri, 312 h, evaluated after 13 days, read-out: damage to plant (100=total damage to plant; 0=no damage to plant). The method in brief:
(§2)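 Pre-emergence spray applied one day after sowing in standard soil, compound delivered from an IF50-based emulsifiable formulation diluted in 0.2% Genapol XO80. Plants then grew under glasshouse conditions for 13 days before damage was rated on a 0 (none) to 100 (total) scale.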

For assay [8], the system named is EPHHL. The assay is described as follows: Pre-emergence biological efficacy. To be noted: Euphorbia heterophylla, 312 h, evaluated after 13 days, read-out: damage to plant (100=total damage to plant; 0=no damage to plant). A digest of the protocol:
as §2

The subject of assay [9] is SETFA. The assay can be described thus: Pre-emergence biological efficacy. To be noted: Setaria faberi, 312 h, evaluated after 13 days, read-out: damage to plant (100=total damage to plant; 0=no damage to plant). A digest of the protocol:
as §2

In assay [10] the test system is IPOHE. The assay can be described thus: Pre-emergence biological efficacy. To be noted: Ipomoea hederacea, 312 h, evaluated after 13 days, read-out: damage to plant (100=total damage to plant; 0=no damage to plant). A digest of the protocol: as §2
Assay [11] relates to LOLPE. The assay is described as follows: Pre-emergence biological efficacy. To be noted: Lolium perenne, 312 h, evaluated after 13 days, read-out: damage to plant (100=total damage to plant; 0=no damage to plant). The method in brief: as §2
Assay [12] relates to ECHCG. The assay is described as follows: Pre-emergence biological efficacy. Conditions: Echinochloa crus-galli, 312 h, evaluated after 13 days, read-out: damage to plant (100=total damage to plant; 0=no damage to plant). The method in brief:
as §2

In the case of `CCOC(=O)C1(C)CC(c2cc(-c3nccnc3C(F)(F)F)c(F)cc2Cl)=NO1` (stereo not drawn) [Compound 1-823, Ethyl 3-[2-chloro-4-fluoro-5-[3-(trifluoromethyl)pyrazin-2-yl]phenyl]-5-methyl-4H-isoxazole-5-carboxylate], the pest or weed control at 250 g/ha was 60% with AMAPA [1]; 60% in the assay on EPHHL [2]; 60% in the assay with SETFA [3]; 50% with DIGSA; 60% with IPOHE [4]; 30% in the assay on ELEIN. Further, the pest or weed control at 250 g/ha turned out to be 10% in the assay on LOLPE [5]; 70% in the assay with ECHCG [6]; 60% in the assay on CHEAL; 0% in the assay on AMAPA [7]; 40% in the assay with EPHHL [8]; 20% in the assay on SETFA [9]. The pest or weed control at 250 g/ha in the assay on IPOHE [10] is 90%; with LOLPE [11], 20%; in the assay on ECHCG [12], 20%.
Regarding `CCOC(=O)C1(C)CC(c2cc(-c3ncc(C#N)cc3Cl)c(F)cc2Cl)=NO1` (stereo not drawn) [Compound 1-607, Ethyl 3-[2-chloro-5-(3-chloro-5-cyano-2-pyridyl)-4-fluoro-phenyl]-5-methyl-4H-isoxazole-5-carboxylate], the pest or weed control at 250 g/ha with AMAPA [1] was 100%; in the assay on EPHHL [2], 100%; in the assay on SETFA [3] it was 80%; with DIGSA, 70%; with IPOHE [4] it was 100%; in the assay with ELEIN it was 60%. Further, the pest or weed control at 250 g/ha in the assay with LOLPE [5] worked out at 70%; in the assay on ECHCG [6], 40%; in the assay with CHEAL it was 100%; with AMAPA [7], 100%; in the assay on EPHHL [8], 50%; in the assay on SETFA [9], 10%. Besides, the results for the pest or weed control at 250 g/ha in the assay on IPOHE [10], in the assay with LOLPE [11] and in the assay on ECHCG [12] were 30%, 20% and 70%, respectively.
For the molecule `CCOC(=O)C1(C)CC(c2cc(-c3cnc(Cl)c(Cl)c3)c(F)cc2Cl)=NO1` (stereo not drawn) [Compound 1-427, Ethyl 3-[2-chloro-5-(5,6-dichloro-3-pyridyl)-4-fluoro-phenyl]-5-methyl-4H-isoxazole-5-carboxylate], the pest or weed control at 250 g/ha came out at 100% in the assay with AMAPA [1]; 70% in the assay with EPHHL [2]; 100% with SETFA [3]; 40% in the assay on DIGSA; 80% with IPOHE [4]; 60% with ELEIN. The pest or weed control at 250 g/ha in the assay with LOLPE [5] was determined as 20%; in the assay on ECHCG [6], 80%; in the assay with CHEAL, 60%; in the assay on AMAPA [7], 0%; in the assay on EPHHL [8], 0%; with SETFA [9] it was 0%. Besides, the pest or weed control at 250 g/ha in the assay on IPOHE [10], with LOLPE [11] and in the assay on ECHCG [12] was 0% in each case.
For `CCOC(=O)C1(C)CC(c2cc(-c3cc(F)cnc3Cl)c(F)cc2Cl)=NO1` (stereo not drawn) [Compound 1-475, Ethyl 3-[2-chloro-5-(2-chloro-5-fluoro-3-pyridyl)-4-fluoro-phenyl]-5-methyl-4H-isoxazole-5-carboxylate], the pest or weed control at 250 g/ha turned out to be 100% in the assay with AMAPA [1]; 70% in the assay with EPHHL [2]; 80% in the assay with SETFA [3]; 50% with DIGSA; 100% in the assay with IPOHE [4]; 30% with ELEIN. For the same molecule, the pest or weed control at 250 g/ha in the assay on LOLPE [5] came to 10%; in the assay on ECHCG [6], 80%; in the assay on CHEAL, 100%; in the assay with AMAPA [7] it was 0%; in the assay on EPHHL [8], 40%; in the assay on SETFA [9] it was 0%. Besides, the pest or weed control at 250 g/ha with IPOHE [10] was found to be 20%; with LOLPE [11], 0%; in the assay on ECHCG [12], 0%.
Regarding `CCOC(=O)C1(C)CC(c2cc(-c3ncc(C(F)(F)F)cc3Cl)c(F)cc2Cl)=NO1` (stereo not drawn) [Compound 1-103, Ethyl 3-[2-chloro-5-(3-chloro-5-trifluoromethyl-2-pyridyl)-4-fluoro-phenyl]-5-methyl-4H-isoxazole-5-carboxylate], the pest or weed control at 250 g/ha in the assay on AMAPA [1], in the assay with EPHHL [2], in the assay on SETFA [3], with DIGSA, in the assay on IPOHE [4] and with ELEIN was 100% each time. In addition, the pest or weed control at 250 g/ha in the assay on LOLPE [5] amounted to 100%; in the assay on ECHCG [6], 100%; in the assay with CHEAL it was 100%; with AMAPA [7], 100%; in the assay with EPHHL [8] it was 100%; with SETFA [9], 80%. In addition, the pest or weed control at 250 g/ha with IPOHE [10] worked out at 100%; with LOLPE [11] it was 80%; with ECHCG [12] it was 90%.
`CCOC(=O)C1(C)CC(c2cc(-c3cnc4c(c3)OC(F)(F)O4)c(F)cc2Cl)=NO1` (stereo not drawn) [Compound 1-451, Ethyl 3-[2-chloro-5-(2,2-difluoro-[1,3]dioxolo[4,5-b]pyridin-6-yl)-4-fluoro-phenyl]-5-methyl-4H-isoxazole-5-carboxylate]: the pest or weed control at 250 g/ha in the assay with AMAPA [1], with EPHHL [2], with SETFA [3], in the assay with DIGSA, in the assay with IPOHE [4] and with ELEIN was 100% each time. Further, the pest or weed control at 250 g/ha in the assay on LOLPE [5] was found to be 100%; in the assay on ECHCG [6], 100%; with CHEAL, 100%; in the assay with AMAPA [7], 90%; in the assay on EPHHL [8], 80%; in the assay on SETFA [9] it was 40%. For the same molecule, the results for the pest or weed control at 250 g/ha in the assay on IPOHE [10], with LOLPE [11] and in the assay on ECHCG [12] were 50%, 40% and 40%, respectively.
`CCOC(=O)C1(C)CC(c2cc(-c3ncc(F)cc3F)c(F)cc2Cl)=NO1` (stereo not drawn) [Compound 1-551, Ethyl 3-[2-chloro-5-(3,5-difluoro-2-pyridyl)-4-fluoro-phenyl]-5-methyl-4H-isoxazole-5-carboxylate]: the pest or weed control at 250 g/ha in the assay with AMAPA [1] worked out at 100%; in the assay on EPHHL [2] it was 90%; in the assay with SETFA [3], 100%; in the assay with DIGSA it was 100%; in the assay with IPOHE [4] it was 100%; in the assay on ELEIN, 100%. Moreover, the pest or weed control at 250 g/ha in the assay on LOLPE [5] worked out at 100%; in the assay with ECHCG [6], 100%; with CHEAL, 100%; with AMAPA [7], 80%; in the assay on EPHHL [8], 50%; in the assay on SETFA [9], 90%. Also, the pest or weed control at 250 g/ha came out at 60% with IPOHE [10], 50% in the assay with LOLPE [11] and 80% in the assay with ECHCG [12].
Take `CCOC(=O)C1(C)CC(c2cc(-c3ccccc3Cl)c(F)cc2Cl)=NO1` (stereo not drawn) [Compound 1-19, Ethyl 3-[2-chloro-5-(2-chlorophenyl)-4-fluoro-phenyl]-5-methyl-4H-isoxazole-5-carboxylate]: the pest or weed control at 250 g/ha was determined as 90% with AMAPA [1]; 90% with EPHHL [2]; 40% in the assay on SETFA [3]; 20% in the assay with DIGSA; 80% with IPOHE [4]; 20% in the assay with ELEIN. Besides, the pest or weed control at 250 g/ha in the assay on LOLPE [5] is 10%; in the assay with ECHCG [6], 20%; in the assay with CHEAL, 90%; in the assay with AMAPA [7], 0%; in the assay with EPHHL [8], 0%; with SETFA [9] it was 0%. Further, the pest or weed control at 250 g/ha in the assay on IPOHE [10], with LOLPE [11] and in the assay on ECHCG [12] was 0% throughout.
